Experimental data published in US11535598B2, “Histone deacetylases (HDACs) inhibitors” (ANNJI PHARMACEUTICAL CO., LTD., priority 2017, dated 2022).
Read-outs that look alike come from different tables or passages of the source.

Tests used:
[1] = target: Human HDAC1 (Homo sapiens (Human), UniProt Q13547); experiment: HDAC enzymatic assay, HDAC1; type: biochemical; settings: 10-dose IC50 mode with a 3-fold serial dilution; read-out: HDAC subtypes IC50 HDAC1
Method: (§1) The IC50 values for aforementioned compounds against HDACs were determined. HDAC 1 to 11 can be assayed by using acetylated AMC-labeled peptide substrate.
(§2) Human HDAC1 GenBank Accession No. NM_004964): Full length with C-terminal GST tag, MW=79.9 kDa, Human HDAC2 (GenBank Accession No. Q92769): Full length with C-terminal His tag, MW=60 kDa. Human HDAC3/NcoR2 (GenBank Accession No. […] for HDAC3, GenBank Accession No. NM_006312 for NcoR2): Complex of human HDAC3, full length with C-terminal His tag, MW=49.7 kDa, and human NCOR2, N-terminal GST tag, MW=39 kDa. Human HDAC6 (GenBank Accession No. BC069243): Full length with N-terminal GST tag, MW=159 kDa. Human HDAC8 (GenBank Accession No. NM018486): Full length, MW=42 kDa, expressed in an E. coli expression system.
(§3) Human HDAC1, Human HDAC2, Human HDAC3/NcoR2, Human HDAC6, Human HDAC10, and Human HDAC11 were all expressed by baculovirus expression system in Sf9 cells.
(§4) 50 μM HDAC substrate. 1% DMSO final. Incubation for 2 hours at 30° C.

[2] = target: Human HDAC8 (Homo sapiens (Human), UniProt Q9BY41); experiment: HDAC enzymatic assay, HDAC8; type: biochemical; settings: 10-dose IC50 mode with a 3-fold serial dilution; read-out: HDAC subtypes IC50 HDAC8
Method: as §1, §2, §4

[3] = target: Human HDAC6 (Homo sapiens (Human), UniProt Q9UBN7); experiment: HDAC enzymatic assay, HDAC6; type: biochemical; settings: 10-dose IC50 mode with a 3-fold serial dilution; read-out: HDAC subtypes IC50 HDAC6
Method: as §1, §2, §3, §4

[4] = in vitro; settings: human
Method: (§5) Cells were seeded in 96-well plates at a density of 5×10^3 cells per well and allowed to attach for 24 h before compound treatment. […] At end of the treatment period 72 h, 20 μl (5 mg/mL) 3-(4,5-dimethylthiazol-2-yl)-2,5-diphenyl-tetrazolium bromide (MTT) reagent was added each well. After 4 h incubation at 37° C., the supernatant was aspirated and the formazan crystals were dissolved in 100 μl of DMSO at 37° C. for 10 min with gentle agitation. The absorbance was measured at 570 nm using the Molecular Devices Microplate Reader. […] IC50 values were calculated from the relative viability values and concentrations by regression analysis.

[5] = in vitro; settings: monkey
Method: as §5

[6] = test system: A549; experiment: Cell proliferation assay MTT, A549; settings: read-out: Cytotoxicity IC50 Lung A549, 72 hr treated
Method: as §5

[7] = test system: HL60; experiment: Cell proliferation assay MTT, HL60; settings: read-out: Cytotoxicity IC50 Leukemia HL60, 72 hr treated
Method: as §5

[8] = test system: U87MG; experiment: Cell proliferation assay MTT, U87MG; settings: read-out: Cytotoxicity IC50 Glioblastoma U87MG, 72 hr treated
Method: as §5

[9] = test system: LNCap; experiment: Cell proliferation assay MTT, LNCaP; settings: read-out: Cytotoxicity IC50 Prostate LNCap, 72 hr treated
Method: as §5

[10] = test system: PANC1; experiment: Cell proliferation assay MTT, PANC1; settings: read-out: Cytotoxicity IC50 Pancreas PANC1, 72 hr treated
Method: as §5

[11] = test system: HepG2; experiment: Cell proliferation assay MTT, HepG2; settings: read-out: Cytotoxicity IC50 Liver HepG2, 72 hr treated
Method: as §5

[12] = test system: MV4-11; experiment: Cell proliferation assay MTT, MV4-11
Method: as §5

[13] = test system: MOLM13; experiment: Cell proliferation assay MTT, MOLM13
Method: as §5

[14] = target: Human HDAC11 (Homo sapiens (Human), UniProt Q96DB2); experiment: HDAC enzymatic assay, HDAC11; type: biochemical; settings: 10-dose IC50 mode with a 3-fold serial dilution; read-out: HDAC subtypes IC50 HDAC11
Method: as §1, §2, §3, §4

[15] = test system: U87MG; settings: human, 72 h
Method: as §5

[16] = test system: LNCap; settings: human, 72 h
Method: as §5

[17] = test system: A549; settings: human, 72 h
Method: as §5

[18] = test system: PANC1; settings: human, 72 h
Method: as §5

[19] = test system: HepG2; settings: human, 72 h
Method: as §5

[20] = test system: Vero; experiment: Cell proliferation assay MTT, Vero normal cells; settings: read-out: Cytotoxicity IC50 Monkey normal Vero, 72 hr treated
Method: as §5

[21] = read-out: Cytotoxicity IC50 Leukemia MV4-11, MTT assay, 72 hr treated
[22] = read-out: Cytotoxicity IC50 Leukemia MOLM13, MTT assay, 72 hr treated
[23] = human, MV4-11 leukemia cells, 72 h
[24] = human, MOLM13 leukemia cells, 72 h

Human HDAC8, sequence (Q9BY41 whole entry): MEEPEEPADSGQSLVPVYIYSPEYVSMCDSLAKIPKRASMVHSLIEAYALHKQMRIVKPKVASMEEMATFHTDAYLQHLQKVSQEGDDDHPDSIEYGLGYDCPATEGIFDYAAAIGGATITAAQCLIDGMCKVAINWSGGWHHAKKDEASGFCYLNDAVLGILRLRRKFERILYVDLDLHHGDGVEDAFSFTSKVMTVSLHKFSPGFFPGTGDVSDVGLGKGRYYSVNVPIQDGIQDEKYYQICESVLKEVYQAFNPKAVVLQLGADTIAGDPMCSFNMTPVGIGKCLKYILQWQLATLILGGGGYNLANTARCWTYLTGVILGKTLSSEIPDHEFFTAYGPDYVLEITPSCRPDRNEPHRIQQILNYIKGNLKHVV
Human HDAC11, sequence (Q96DB2 whole entry): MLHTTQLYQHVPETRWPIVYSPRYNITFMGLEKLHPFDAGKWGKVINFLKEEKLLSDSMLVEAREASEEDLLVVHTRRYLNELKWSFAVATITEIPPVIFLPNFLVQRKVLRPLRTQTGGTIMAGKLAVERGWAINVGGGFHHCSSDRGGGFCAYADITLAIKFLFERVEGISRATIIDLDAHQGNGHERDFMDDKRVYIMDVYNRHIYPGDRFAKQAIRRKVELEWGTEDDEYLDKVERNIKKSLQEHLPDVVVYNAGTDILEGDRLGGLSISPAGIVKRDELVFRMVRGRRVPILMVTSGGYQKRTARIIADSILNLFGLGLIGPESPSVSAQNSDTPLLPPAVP
Human HDAC1, sequence (Q13547 whole entry): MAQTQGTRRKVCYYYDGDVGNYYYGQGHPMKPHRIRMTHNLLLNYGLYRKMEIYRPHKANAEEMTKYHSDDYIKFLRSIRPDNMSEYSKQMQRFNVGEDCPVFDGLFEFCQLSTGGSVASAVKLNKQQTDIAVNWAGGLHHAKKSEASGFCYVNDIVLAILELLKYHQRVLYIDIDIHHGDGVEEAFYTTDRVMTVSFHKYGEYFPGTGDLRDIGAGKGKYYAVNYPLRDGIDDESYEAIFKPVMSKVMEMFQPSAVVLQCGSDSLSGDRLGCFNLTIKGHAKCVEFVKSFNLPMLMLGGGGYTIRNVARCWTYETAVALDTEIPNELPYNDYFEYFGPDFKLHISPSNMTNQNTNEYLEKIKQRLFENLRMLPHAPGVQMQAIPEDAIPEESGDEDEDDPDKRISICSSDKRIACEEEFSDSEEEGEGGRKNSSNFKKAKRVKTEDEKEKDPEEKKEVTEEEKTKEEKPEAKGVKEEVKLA
Human HDAC6, sequence (Q9UBN7 whole entry): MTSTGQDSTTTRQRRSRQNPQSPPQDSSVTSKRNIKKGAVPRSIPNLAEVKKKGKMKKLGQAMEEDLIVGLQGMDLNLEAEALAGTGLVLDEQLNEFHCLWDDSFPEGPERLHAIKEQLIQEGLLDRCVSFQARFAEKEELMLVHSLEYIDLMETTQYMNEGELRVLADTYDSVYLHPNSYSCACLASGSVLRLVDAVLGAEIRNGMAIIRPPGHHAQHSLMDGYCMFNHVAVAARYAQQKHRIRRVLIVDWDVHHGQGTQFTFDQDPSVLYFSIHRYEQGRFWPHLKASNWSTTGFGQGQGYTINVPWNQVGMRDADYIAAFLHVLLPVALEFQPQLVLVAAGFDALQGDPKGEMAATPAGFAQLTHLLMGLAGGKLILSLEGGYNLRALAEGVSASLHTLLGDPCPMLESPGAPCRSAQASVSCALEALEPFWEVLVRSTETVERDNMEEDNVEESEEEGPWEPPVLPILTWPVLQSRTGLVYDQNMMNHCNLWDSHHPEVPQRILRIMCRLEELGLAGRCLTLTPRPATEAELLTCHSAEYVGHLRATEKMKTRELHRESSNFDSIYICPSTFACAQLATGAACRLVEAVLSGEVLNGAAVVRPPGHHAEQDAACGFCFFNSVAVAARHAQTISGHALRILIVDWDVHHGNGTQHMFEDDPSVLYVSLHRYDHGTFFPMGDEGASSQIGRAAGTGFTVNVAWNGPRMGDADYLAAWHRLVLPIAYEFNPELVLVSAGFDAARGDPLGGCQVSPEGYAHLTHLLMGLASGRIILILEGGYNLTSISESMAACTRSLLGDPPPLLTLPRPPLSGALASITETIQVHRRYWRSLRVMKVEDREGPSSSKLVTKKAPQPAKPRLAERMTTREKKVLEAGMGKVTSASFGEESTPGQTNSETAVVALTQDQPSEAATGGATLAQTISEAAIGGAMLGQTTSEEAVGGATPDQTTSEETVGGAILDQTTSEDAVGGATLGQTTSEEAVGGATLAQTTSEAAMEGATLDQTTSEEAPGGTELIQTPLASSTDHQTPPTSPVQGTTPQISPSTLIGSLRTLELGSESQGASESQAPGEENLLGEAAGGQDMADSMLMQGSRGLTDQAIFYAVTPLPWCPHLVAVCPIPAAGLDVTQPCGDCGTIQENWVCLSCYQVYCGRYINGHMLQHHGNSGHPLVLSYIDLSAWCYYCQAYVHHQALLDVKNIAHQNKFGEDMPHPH

SMILES | IC50 [1] [µM] | IC50 [2] [nM] | IC50 [3] [nM] | IC50 at 72 h ([4]; FHs173We normal cells) [µM] | IC50 at 72 h ([5]; Vero normal cells) [µM] | IC50 [6] [µM] | IC50 [7] [nM] | IC50 [8] [µM] | IC50 [9] [µM] | IC50 [10] [µM] | IC50 [14] [µM] | IC50 [15] [µM] | IC50 [16] [µM] | IC50 [17] [µM] | IC50 [18] [µM] | IC50 [19] [µM] | IC50 at 72 h [4] [µM] | IC50 at 72 h [5] [µM] | IC50 [12, 23] [nM] | IC50 [13, 24] [nM] | further results
N#Cc1ccc2c(=O)n(CCc3ccccc3)c(=O)n(Cc3ccc(C(=O)NO)cc3)c2c1 [Compound 3, 4-((7-cyano-2,4-dioxo-3-phenethyl-3,4-dihydroquinazolin-1(2H)-yl)methyl)-N-hydroxybenzamide] | 12 | 1300 | 13500 | > 200 | > 10 | > 10 | > 10000 | > 10 | > 10 | > 10 |  |  |  |  |  |  |  |  |  |  | IC50 [11]: > 10 µM; IC50 [12, 21]: > 10000 nM; IC50 [13, 22]: > 10000 nM
O=C(NO)c1ccc(Cn2c(=O)n(CCc3ccccc3)c(=O)c3ccc(O)cc32)cc1 [Compound 4, N-hydroxy-4-((7-hydroxy-2,4-dioxo-3-phenethyl-3,4-dihydroquinazolin-1(2H)-yl)methyl)benzamide] | 8.28 | 2750 | 28 |  |  |  | 670 ± 90 |  |  |  | 5.5 | 4.28 ± 0.67 | 2.97 ± 0.22 | 8.04 ± 0.28 | 6.54 ± 0.11 | 6.12 ± 0.33 | 147.1 ± 0.51 | 156.4 ± 0.42 | 750 ± 110 | 810 ± 90 | 
O=C(NO)c1ccc(Cn2c(=O)n(CCc3ccccc3)c(=O)c3ccccc32)cc1 [Compound 5, 4-((2,4-dioxo-3-phenethyl-3,4-dihydroquinazolin-1(2H)-yl)methyl)-N-hydroxybenzamide] | 11.2 | 376 | 4 | 83.21 ± 0.62 | 91.38 ± 0.47 | 3.75 ± 0.39 | 250 ± 30 | 1.56 ± 0.14 | 0.44 ± 0.07 | 4.15 ± 0.27 | 13.9 |  |  |  |  |  |  |  |  |  | IC50 [11]: 1.93 ± 0.25 µM; IC50 [12, 21]: 170 ± 50 nM; IC50 [13, 22]: 160 ± 30 nM
O=C(NO)c1ccc(Cn2c(=O)n(CCc3ccccc3)c(=O)c3ccc(Cl)cc32)cc1 [Compound 8, 4-((7-chloro-2,4-dioxo-3-phenethyl-3,4-dihydroquinazolin-1(2H)-yl)methyl)-N-hydroxybenzamide] | 9.54 | 1640 | 21 |  |  |  | 440 ± 40 |  |  |  |  | 2.1 ± 0.06 | 1.07 ± 0.14 | 2.28 ± 0.27 | 3.52 ± 0.09 | 2.74 ± 0.29 | 75.79 ± 0.12 | 85.74 ± 0.17 | 370 ± 20 | 480 ± 80 | 
O=C(NO)c1ccc(Cn2c(=O)n(CCc3ccccc3)c(=O)c3cc(Cl)ccc32)cc1 [Compound 9, 4-((6-chloro-2,4-dioxo-3-phenethyl-3,4-dihydroquinazolin-1(2H)-yl)methyl)-N-hydroxybenzamide] | 18.9 |  | 35 | 70.34 ± 0.12 | 77.51 ± 0.14 | 2.45 ± 0.51 | 2710 ± 50 | 2.26 ± 0.13 | 1.01 ± 0.11 | 4.05 ± 0.12 |  |  |  |  |  |  |  |  |  |  | IC50 [11]: 2.03 ± 0.47 µM; IC50 [12, 21]: 2780 ± 30 nM; IC50 [13, 22]: 2820 ± 70 nM
O=C(NO)c1ccc(Cn2c(=O)n(CCc3ccccc3)c(=O)c3ccc(C(F)(F)F)cc32)cc1 [Compound 13, 4-((2,4-dioxo-3-phenethyl-7-(trifluoromethyl)-3,4-dihydroquinazolin-1(2H)-yl)methyl)-N-hydroxybenzamide] | 8.02 | 1440 | 635 | 131.7 ± 0.25 | 146.2 ± 0.41 | 7.22 ± 0.29 | 870 ± 120 | 5.87 ± 0.14 | 5.92 ± 0.21 | 8.29 ± 0.43 | 7.39 |  |  |  |  |  |  |  |  |  | IC50 [11]: 5.48 ± 0.27 µM; IC50 [12, 21]: 830 ± 110 nM; IC50 [13, 22]: 920 ± 70 nM
O=C(NO)c1ccc(Cn2c(=O)n(CCc3ccc(F)cc3)c(=O)c3ccccc32)cc1 [Compound 14, 4-((3-(4-fluorophenethyl)-2,4-dioxo-3,4-dihydroquinazolin-1(2H)-yl)methyl)-N-hydroxybenzamide] | 10.8 | 1050 | 23 |  |  |  | 1370 ± 70 |  |  |  | 14.7 | 6.31 ± 0.63 | 4.25 ± 0.21 | 6.35 ± 0.11 | > 10 | 6.82 ± 0.12 | 83.81 ± 0.19 | 116 ± 0.23 | 1770 ± 50 | 1620 ± 90 | 
COc1ccccc1CCn1c(=O)c2ccccc2n(Cc2ccc(C(=O)NO)cc2)c1=O [Compound 15, N-hydroxy-4-((3-(2-methoxyphenethyl)-2,4-dioxo-3,4-dihydroquinazolin-1(2H)-yl)methyl)benzamide] |  | 525 | 11 | 55.44 ± 0.09 | 96.92 ± 0.11 | 5.69 ± 0.21 | 1220 ± 80 | 7.08 ± 0.8 | 5.71 ± 0.32 | > 10 | 34.4 |  |  |  |  |  |  |  |  |  | IC50 [11]: 7.11 ± 0.28 µM; IC50 [12, 21]: 1650 ± 30 nM; IC50 [13, 22]: 1470 ± 70 nM
O=C(NO)c1ccc(Cn2c(=O)n(CCc3ccccc3)c(=O)c3cc(F)ccc32)cc1 [Compound 17, 4-((6-fluoro-2,4-dioxo-3-phenethyl-3,4-dihydroquinazolin-1(2H)-yl)methyl)-N-hydroxybenzamide] | 13.4 | 1160 | 57 |  |  |  | 2370 ± 110 |  |  |  | 16.7 | 6.13 ± 0.78 | 5.74 ± 0.51 | 8.96 ± 0.17 | 8.47 ± 0.04 | 6.64 ± 0.92 | 100.5 ± 0.37 | 123.2 ± 0.33 | 3130 ± 90 | 356000 ± 90 | 
Cc1ccc2c(=O)n(CCc3ccccc3)c(=O)n(Cc3ccc(C(=O)NO)cc3)c2c1 [Compound 22, N-hydroxy-4-((7-methyl-2,4-dioxo-3-phenethyl-3,4-dihydroquinazolin-1(2H)-yl)methyl)benzamide] | 10.9 | 2520 | 170 |  |  |  | 1460 ± 80 |  |  |  | 52.1 | 5.68 ± 0.19 | 5.38 ± 0.41 | 7.44 ± 0.12 | 8.73 ± 0.71 | 6.82 ± 0.44 | 135.1 ± 0.39 | 127.4 ± 0.28 | 1640 ± 70 | 1770 ± 50 | 
N#Cc1ccc2c(=O)n(CCc3ccccc3)c(=O)n(Cc3ccc(CC(=O)NO)cc3)c2c1 [Compound 23, 2-(4-((7-cyano-2,4-dioxo-3-phenethyl-3,4-dihydroquinazolin-1(2H)-yl)methyl)phenyl)-N-hydroxyacetamide] |  |  |  |  |  |  | 1250 ± 80 |  |  |  |  | 4.12 ± 0.06 | 4.05 ± 0.07 | 4.21 ± 0.03 | 5.12 ± 0.11 | 4.24 ± 0.03 | 92.11 ± 0.69 | 95.27 ± 0.58 | 1190 ± 70 | 2320 ± 70 | 
O=C(NO)c1ccc(Cn2c(=O)n(CCc3cccc(F)c3)c(=O)c3ccccc32)cc1 [Compound 26, 4-((3-(3-fluorophenethyl)-2,4-dioxo-3,4-dihydroquinazolin-1(2H)-yl)methyl)-N-hydroxybenzamide] | 13.2 | 428 | 10 |  |  |  | 3120 ± 80 |  |  |  | 10.7 | 3.77 ± 0.25 | 0.96 ± 0.02 | 4.58 ± 0.21 | 5.03 ± 0.19 | 4.03 ± 0.11 | 84.34 ± 0.73 | 93.26 ± 0.25 | 3710 ± 110 | 4010 ± 60 | 
O=C(CCCCCCC(=O)Nc1ccccc1)NO [SAHA, reference compound] |  |  |  |  |  |  | 1850 ± 80 |  |  |  |  |  |  |  |  |  |  |  |  |  | IC50 [20]: 26.6 µM
